Assay results reported in patent publication US20130281512A1, “AGENTS FOR TREATING DISORDERS INVOLVING MODULATION OF RYANODINE RECEPTORS” (LES LABORATOIRES SERVIER, priority 2012, published 2013).
Where two headings read alike, the source gives them in different places.

Experiments:
RyR1 = target: T1, RyR1 (Mus musculus, UniProt E9PZQ0); experiment: Calstabin1 rebinding to RyR1 in isoproterenol treated mice; assay type: in vivo; details: isoproterenol 0.5 mg/kg/hr plus compound in osmotic pumps, five days; compared with 3.6 mM S36
T1 construct: RyR1 from aged (24 months) mice is oxidized, cysteine-nitrosylated, and depleted of calstabin1; host or cells: mice (in vivo)
Source text: Isoproterenol, a beta adrenergic receptor agonist, induces heart failure in mice via overstimulation of the beta adrenergic receptor. Concurrent with this is the activation of PKA, phosphorylation of the RyR2 on the SR, and decreased interaction of calstabin2 (FKBP12.6) to RyR2. A similar cascade of events occurs in skeletal muscle, wherein RyR1 is phosphorylated, leading to decreased binding of calstabin1 (FKBP12) to RyR1.
As described in detail in International publication no. WO2008/064264, the contents of which are incorporated by reference herein, chronic isoproterenol treatment to a wild-type mouse offers a fast and reliable method for inducing changes in RyR biochemistry that could be readily quantified. These changes include increased RyR phosphorylation and concomitant decreased calstabin binding.
C57Bl/6 mice were maintained and studied according to approved protocols. The synthetic beta-adrenergic agonist, isoproterenol (ISO) was obtained from Sigma (165627) and prepared as a 100 mg/ml stock in water. […]
The loaded osmotic pumps were implanted subcutaneously by the following steps. The recipient mouse was anesthetized with 1.5-2% isoflurane in O2 administered at 0.6 L/min, and its weight was then measured and recorded. […]

[1] = Morning blood exposure (drug plasma concentrations) in mdx and WT mice; assay type: in vivo; details: mouse, oral, read-out: Morning blood exposure (average±SEM)
Experimental: Distance traveled (Km/day) over a 24 hr period was analyzed as an index of improved functional activity (see, DMD_M.2.1.002 SOP at http://www.treat-nmd.eu/). At the conclusion of the study, Extensor digitorum longus (EDL) muscle was isolated for muscle force analysis as further described hereinbelow. Blood was collected from each mouse by retro-orbital bleeds at the end of the study (after end of dark cycle—about 7 AM) to assess drug plasma concentrations. Experiments were blinded.

[2] = Metabolic stability in human hepatic microsomes (Clint, predicted MF %); assay type: in vitro ADME
Experimental: Compound solubilization: Stock solutions were made in DMSO, and working solutions in water containing 1 mg/ml BSA.
Prediction of metabolic bioavailability: Metabolic bioavailability predictions (MF %) were based on in vitro metabolic stability measurements with hepatic microsomes assuming total absorption. Briefly, unchanged drugs were quantified by LC-MS-MS following incubation (10^−7M) with rat and human hepatic microsomes (0.33 mg protein/ml) after 0, 5, 15, 30 and 60 min of incubation in presence of NADPH (1 mM). Enzymatic reaction was stopped with methanol (v/v) and proteins were precipitated by centrifugation. The in vitro intrinsic clearances (Clint_mic) expressed as ml/min/g protein were the slope (after LN linearization) of the unchanged drug remaining concentration versus incubation time. In vitro Clint were then scaled up to in vivo whole body (vivoClint) using 0.045 mg prot/kg of liver and liver weight of 11 g for the rat and 1.2 kg for Man.

human hepatocytes = experiment: Metabolic stability in human hepatocytes; assay type: in vitro ADME
Experimental: Compound solubilization: Stock solutions were made in DMSO, and working solutions in William medium containing 1/10 rat plasma or 1/4 human plasma.
Metabolic stability determination: Compounds were incubated at 10^−7 M with isolated hepatocytes (6E+5 cells/ml for rat hepatocytes and 4E+5 cells/ml for human hepatocytes) at 37° C. in plasma from the same species diluted in Wiliams medium (1/10 dilution for rat and 1/4 dilution for human). Sampling times were performed at 0, 10, 20, 30, 60 and 120 min and enzymatic reaction stopped with methanol (v/v). Proteins were precipitated by centrifugation and the supernatant was analyzed by LC/MS/MS. Clint expressed as ml/min/g protein were calculated as for hepatic microsomes using a ratio of 0.134 mg protein/ml for 4E+5 cells/ml for human and 0.201 mg protein/ml for 6E+5 cells/ml for rat. The presence of the reference drug and the potential metabolite was checked by LC/MS/MS during the assay in each sample.

T1 sequence (E9PZQ0 whole entry): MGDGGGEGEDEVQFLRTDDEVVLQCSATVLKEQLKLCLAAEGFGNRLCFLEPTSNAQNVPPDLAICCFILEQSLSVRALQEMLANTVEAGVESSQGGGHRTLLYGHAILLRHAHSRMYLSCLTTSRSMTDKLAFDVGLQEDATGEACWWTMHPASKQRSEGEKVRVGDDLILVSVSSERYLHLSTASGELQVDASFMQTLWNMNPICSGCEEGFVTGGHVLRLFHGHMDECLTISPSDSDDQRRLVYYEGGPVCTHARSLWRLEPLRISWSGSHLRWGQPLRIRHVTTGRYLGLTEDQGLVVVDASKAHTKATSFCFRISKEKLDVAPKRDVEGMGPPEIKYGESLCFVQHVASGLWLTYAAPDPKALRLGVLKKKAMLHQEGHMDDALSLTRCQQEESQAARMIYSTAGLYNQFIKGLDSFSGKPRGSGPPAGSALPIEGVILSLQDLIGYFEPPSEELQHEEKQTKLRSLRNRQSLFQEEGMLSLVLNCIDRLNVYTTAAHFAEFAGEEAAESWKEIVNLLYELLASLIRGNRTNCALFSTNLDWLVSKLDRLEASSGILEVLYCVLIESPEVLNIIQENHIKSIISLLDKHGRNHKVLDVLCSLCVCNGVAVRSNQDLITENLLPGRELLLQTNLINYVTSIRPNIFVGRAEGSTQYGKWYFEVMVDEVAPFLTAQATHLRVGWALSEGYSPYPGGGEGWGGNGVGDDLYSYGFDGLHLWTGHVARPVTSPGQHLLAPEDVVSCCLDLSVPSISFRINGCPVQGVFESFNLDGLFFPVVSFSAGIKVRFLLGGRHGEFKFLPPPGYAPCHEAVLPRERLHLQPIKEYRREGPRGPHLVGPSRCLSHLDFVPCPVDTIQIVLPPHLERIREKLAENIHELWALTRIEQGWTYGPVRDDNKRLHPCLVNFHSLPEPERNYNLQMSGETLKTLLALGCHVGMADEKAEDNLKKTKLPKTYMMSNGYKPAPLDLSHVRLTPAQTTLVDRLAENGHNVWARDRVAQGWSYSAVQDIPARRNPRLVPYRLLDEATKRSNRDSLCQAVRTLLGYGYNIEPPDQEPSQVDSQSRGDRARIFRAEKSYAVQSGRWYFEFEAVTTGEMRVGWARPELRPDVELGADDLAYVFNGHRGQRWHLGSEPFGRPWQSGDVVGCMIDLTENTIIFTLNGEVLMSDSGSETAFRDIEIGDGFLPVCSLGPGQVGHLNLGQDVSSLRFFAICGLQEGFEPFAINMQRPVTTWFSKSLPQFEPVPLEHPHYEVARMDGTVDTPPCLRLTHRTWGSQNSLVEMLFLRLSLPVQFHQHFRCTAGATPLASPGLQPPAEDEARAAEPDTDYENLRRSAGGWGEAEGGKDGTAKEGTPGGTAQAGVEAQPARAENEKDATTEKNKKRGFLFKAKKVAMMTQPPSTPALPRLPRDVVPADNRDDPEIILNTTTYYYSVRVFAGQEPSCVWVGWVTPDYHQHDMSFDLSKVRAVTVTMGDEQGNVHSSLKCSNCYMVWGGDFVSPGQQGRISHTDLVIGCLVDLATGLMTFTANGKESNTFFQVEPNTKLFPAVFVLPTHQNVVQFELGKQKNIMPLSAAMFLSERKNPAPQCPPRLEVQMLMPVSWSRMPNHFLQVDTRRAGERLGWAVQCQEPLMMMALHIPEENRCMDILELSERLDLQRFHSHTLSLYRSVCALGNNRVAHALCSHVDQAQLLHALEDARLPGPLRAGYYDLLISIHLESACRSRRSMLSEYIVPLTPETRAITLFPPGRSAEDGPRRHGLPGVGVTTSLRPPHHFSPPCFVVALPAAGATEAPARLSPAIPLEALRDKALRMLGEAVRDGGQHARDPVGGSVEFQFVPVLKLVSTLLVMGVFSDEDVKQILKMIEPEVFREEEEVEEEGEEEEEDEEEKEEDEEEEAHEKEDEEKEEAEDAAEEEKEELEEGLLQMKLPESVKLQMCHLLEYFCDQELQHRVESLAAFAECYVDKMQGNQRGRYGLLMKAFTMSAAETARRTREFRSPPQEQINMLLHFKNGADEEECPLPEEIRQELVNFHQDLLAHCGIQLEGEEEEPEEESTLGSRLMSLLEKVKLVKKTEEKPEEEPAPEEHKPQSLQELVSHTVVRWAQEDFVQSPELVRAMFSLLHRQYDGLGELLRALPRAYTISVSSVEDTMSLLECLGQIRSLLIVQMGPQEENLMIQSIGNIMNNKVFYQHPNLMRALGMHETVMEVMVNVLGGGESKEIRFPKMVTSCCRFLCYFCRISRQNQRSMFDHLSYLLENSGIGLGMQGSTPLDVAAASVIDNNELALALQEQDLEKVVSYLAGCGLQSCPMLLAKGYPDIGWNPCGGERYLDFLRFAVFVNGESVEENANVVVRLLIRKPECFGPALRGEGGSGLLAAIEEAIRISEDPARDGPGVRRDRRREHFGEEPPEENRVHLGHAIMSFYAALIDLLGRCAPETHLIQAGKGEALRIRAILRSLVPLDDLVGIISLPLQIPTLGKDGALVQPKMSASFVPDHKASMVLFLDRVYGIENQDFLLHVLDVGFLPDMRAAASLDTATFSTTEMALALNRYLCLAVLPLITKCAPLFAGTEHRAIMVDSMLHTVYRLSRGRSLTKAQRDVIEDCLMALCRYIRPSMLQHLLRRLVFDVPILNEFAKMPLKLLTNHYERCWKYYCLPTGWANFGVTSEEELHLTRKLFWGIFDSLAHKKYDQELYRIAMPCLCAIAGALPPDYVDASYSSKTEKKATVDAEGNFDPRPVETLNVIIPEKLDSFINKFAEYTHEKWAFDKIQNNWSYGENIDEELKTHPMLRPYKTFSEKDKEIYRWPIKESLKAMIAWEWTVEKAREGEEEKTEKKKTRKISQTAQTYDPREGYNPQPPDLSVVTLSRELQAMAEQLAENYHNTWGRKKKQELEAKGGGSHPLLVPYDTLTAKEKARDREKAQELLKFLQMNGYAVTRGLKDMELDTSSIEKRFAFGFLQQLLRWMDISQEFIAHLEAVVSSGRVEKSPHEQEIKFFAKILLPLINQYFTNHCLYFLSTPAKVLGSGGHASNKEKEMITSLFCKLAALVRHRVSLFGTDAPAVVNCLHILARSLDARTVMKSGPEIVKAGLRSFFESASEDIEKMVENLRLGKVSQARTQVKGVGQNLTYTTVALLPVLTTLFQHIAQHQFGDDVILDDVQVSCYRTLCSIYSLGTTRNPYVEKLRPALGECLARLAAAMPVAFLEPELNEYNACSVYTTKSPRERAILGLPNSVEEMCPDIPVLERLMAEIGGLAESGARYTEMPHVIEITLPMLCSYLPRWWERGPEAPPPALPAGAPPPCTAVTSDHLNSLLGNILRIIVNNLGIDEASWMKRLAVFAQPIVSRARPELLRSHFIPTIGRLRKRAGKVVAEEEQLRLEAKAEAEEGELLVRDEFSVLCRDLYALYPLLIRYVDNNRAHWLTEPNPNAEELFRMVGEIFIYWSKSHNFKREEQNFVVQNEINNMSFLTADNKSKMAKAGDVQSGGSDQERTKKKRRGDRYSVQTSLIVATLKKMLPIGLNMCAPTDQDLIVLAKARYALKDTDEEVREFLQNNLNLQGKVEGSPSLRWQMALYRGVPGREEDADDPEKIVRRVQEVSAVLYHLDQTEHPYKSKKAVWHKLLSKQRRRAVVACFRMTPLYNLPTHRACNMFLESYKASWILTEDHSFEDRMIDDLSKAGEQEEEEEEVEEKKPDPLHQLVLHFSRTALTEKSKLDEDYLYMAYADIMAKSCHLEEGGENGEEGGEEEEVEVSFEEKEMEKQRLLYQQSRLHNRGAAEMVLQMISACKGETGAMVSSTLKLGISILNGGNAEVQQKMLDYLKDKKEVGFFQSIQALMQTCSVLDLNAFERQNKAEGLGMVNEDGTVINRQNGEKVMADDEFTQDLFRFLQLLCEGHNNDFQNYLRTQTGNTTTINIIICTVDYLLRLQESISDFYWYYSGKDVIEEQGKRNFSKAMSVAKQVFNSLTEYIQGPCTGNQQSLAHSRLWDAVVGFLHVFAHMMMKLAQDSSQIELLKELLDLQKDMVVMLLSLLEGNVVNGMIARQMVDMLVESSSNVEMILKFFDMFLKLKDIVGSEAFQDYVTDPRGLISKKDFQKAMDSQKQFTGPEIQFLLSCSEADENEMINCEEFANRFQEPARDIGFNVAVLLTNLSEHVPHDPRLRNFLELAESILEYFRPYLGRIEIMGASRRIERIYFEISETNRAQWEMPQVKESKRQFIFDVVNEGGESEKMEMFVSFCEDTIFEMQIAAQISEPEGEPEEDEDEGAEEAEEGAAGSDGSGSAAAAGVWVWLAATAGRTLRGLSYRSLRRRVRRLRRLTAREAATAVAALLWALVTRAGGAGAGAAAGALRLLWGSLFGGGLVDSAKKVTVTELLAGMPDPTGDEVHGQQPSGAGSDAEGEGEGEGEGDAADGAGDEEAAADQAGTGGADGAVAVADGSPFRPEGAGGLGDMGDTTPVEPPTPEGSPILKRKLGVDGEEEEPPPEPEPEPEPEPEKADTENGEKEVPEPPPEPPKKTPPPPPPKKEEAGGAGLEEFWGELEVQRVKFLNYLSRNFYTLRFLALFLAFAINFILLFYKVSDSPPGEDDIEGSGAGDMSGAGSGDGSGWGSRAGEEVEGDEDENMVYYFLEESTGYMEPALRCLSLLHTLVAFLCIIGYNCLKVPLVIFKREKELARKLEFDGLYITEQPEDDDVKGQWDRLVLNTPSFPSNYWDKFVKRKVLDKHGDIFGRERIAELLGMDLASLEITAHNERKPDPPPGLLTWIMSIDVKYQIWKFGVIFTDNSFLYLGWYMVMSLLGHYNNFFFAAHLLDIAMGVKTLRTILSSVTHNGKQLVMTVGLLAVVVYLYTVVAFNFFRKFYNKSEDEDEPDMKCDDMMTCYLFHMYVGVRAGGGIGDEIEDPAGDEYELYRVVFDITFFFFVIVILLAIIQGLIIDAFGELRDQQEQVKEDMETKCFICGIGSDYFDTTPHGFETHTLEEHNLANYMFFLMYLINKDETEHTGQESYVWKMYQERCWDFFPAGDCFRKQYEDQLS
T1 sequence (P26883 2-108 partner limits assumed): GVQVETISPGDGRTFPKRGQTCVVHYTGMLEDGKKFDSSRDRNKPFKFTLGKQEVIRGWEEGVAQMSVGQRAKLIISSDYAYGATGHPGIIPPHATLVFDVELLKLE

## COc1ccc2c(c1)CN(Cc1ccc(C(=O)O)cc1)CCS2 [Compound 1, 4-((7-Methoxy-2,3-dihydrobenzo[f][1,4]thiazepin-4(5H)-yl)methyl)benzoic acid]
RyR1
  levels of calstabin1 bound to RyR1 in skeletal muscle: enhanced levels of calstabin1 bound to RyR1
[1]; C57BL/6 (WT), 50 mg/kg/d-dosed WT mice
  concentration at 4 weeks: 72.8 ± 7 µM
[1]; C57BL/10ScSn-DMD^mdx/J (mdx), 5 mg/kg/d-dosed mdx mice
  concentration at 4 weeks: 3.3 ± 0.4 µM
[1]; C57BL/10ScSn-DMD^mdx/J (mdx), 10 mg/kg/d-dosed mdx mice
  concentration at 4 weeks: 10.7 ± 0.9 µM
[1]; C57BL/10ScSn-DMD^mdx/J (mdx), 50 mg/kg/d-dosed mdx mice
  concentration at 4 weeks: 52.8 ± 1.7 µM
[2]
  Class (metabolic bioavailability): high
[2]; 10^-7 M, 0.33 mg protein/ml, NADPH
  Clint_mic man (in vitro intrinsic clearance): 9.1 ml/min/gprot
[2]; predicted from Clint assuming total absorption
  MF mic % (metabolic bioavailability): 75%
Human hepatocytes
  MF human %: 100%
Human hepatocytes; 4.00E+05 cells/ml, 10^-7 M
  Clint: 0 ml/min/gprot
